Tested on: PI3K
Assay: Cellular testing of PI3K inhibitors: P-S473-PKB Luminex assay in PC3 cells
Assay type: cell-based
Details: PI3 kinase inhibition, cell
Procedure: Description of the Method for the Cellular Testing of PI3K Inhibitors
The cellular assay for determination of the P-S473-PKB level is carried out as a Luminex assay in 96-well format in PC3 cells.
PC3 cells are sown out with 20,000 cells per well in 100 μl medium (45% RPMI1460/45% Ham's F12/10% FCS) and incubated on the following day for 30 min with a serial dilution of the test substance (7 concentrations) under serum-free conditions. […] The lysates are incubated overnight at 4° C. with shaking with Luminex beads to which an anti-total PKB antibody is coupled. The detection is carried out on the following day by addition of a P-S473-PKB antibody and a species-specific PE-labelled secondary antibody. The detection of P-S473-PKB is carried out by measurement in a Luminex 100 instrument by determination of 100 events per cavity in a measurement time of 60 sec. […] The values of the preparations treated with test substance are calculated from this as percent of control, and IC50 values are determined by means of RS1.

| IC50 | Structure (SMILES) |
| --- | --- |
| 1 to 100 nM | COc1cc(Nc2nc3ccccc3nc2NS(=O)(=O)c2ccc(C#N)cc2)c(CCCCO)c(OC)c1 [Compound A6] |
| 100 to 10000 nM | COc1cc(Nc2nc3ccccc3nc2NS(=O)(=O)c2cn(C)cn2)c(CCCCO)c(OC)c1 [Compound A7] |
| 100 to 10000 nM | COc1cc(Nc2nc3ccccc3nc2NS(=O)(=O)c2cn(C)cn2)c2c(c1)OCCO2 [Compound A10] |
| 100 to 10000 nM | CCc1c(Nc2nc3ccccc3nc2NS(=O)(=O)c2cn(C)cn2)cc(OC)cc1OC [Compound A14] |
| > 10000 nM | CCc1cc(OC)cc(Nc2nc3ccccc3nc2NS(=O)(=O)c2ccc(C(=O)N(C)C)cc2)c1OC [Compound A18] |
| 1 to 100 nM | COc1cc(Nc2nc3ccccc3nc2NS(=O)(=O)c2cncs2)c(OCCCO)c(OC)c1 [Compound A22] |
| 100 to 10000 nM | COc1cc(Nc2nc3ccccc3nc2NS(=O)(=O)c2cnn(CCN(C)C)c2)c(OCCCO)c(OC)c1 [Compound A23, 1-(2-Dimethylamino-ethyl)-1H-pyrazole-4-sulfonic acid {3-[2-(3-hydroxypropoxy)-3,5-dimethoxy-phenylamino]quinoxalin-2-yl} amide] |
| 100 to 10000 nM | COc1cc(Nc2nc3ccccc3nc2NS(=O)(=O)c2cnn(CC(=O)N(C)C)c2)c(OCCCO)c(OC)c1 [Compound A27] |
| 1 to 100 nM | COc1cc(Nc2nc3ccccc3nc2NS(=O)(=O)c2cn(C)c(CN(C)C)n2)c(OCCC(C)O)c(OC)c1 (stereo not drawn) [Compound A28] |
| 1 to 100 nM | COc1cc(Nc2nc3ccccc3nc2NS(=O)(=O)c2cnn(C(F)F)c2)c(OCCCO)c(OC)c1 [Compound A29] |
| 1 to 100 nM | COc1cc(Nc2nc3ccccc3nc2NS(=O)(=O)c2ccccc2)c(OCCCO)c(OC)c1 [Compound A30] |

The next lines start with the compound.

| Structure (SMILES) | IC50 |
| --- | --- |
| COc1cc(Nc2nc3ccccc3nc2NS(=O)(=O)c2cn(C)cn2)c2c(c1)OCO2 [Compound A1] | 100 to 10000 nM |
| COc1cc(Nc2nc3ccccc3nc2NS(=O)(=O)c2ccc(C#N)cc2)c(CCCN(C)C)c(OC)c1 [Compound A2] | 100 to 10000 nM |
| COc1cc(Nc2nc3ccccc3nc2NS(=O)(=O)c2ccc(C#N)cc2)c(CCCN2CCS(=O)(=O)CC2)c(OC)c1 [Compound A3] | 1 to 100 nM |
| COc1cc(Nc2nc3ccccc3nc2NS(=O)(=O)c2cn(C)cn2)c(CCCN2CCS(=O)(=O)CC2)c(OC)c1 [Compound A4] | 100 to 10000 nM |
| COc1cc2c(c(Nc3nc4ccccc4nc3NS(=O)(=O)c3cn(C)cn3)c1)OC(CO)C2 (stereo not drawn) [Compound A5] | 100 to 10000 nM |
| COc1cc(Nc2nc3ccccc3nc2NS(=O)(=O)c2cn(C)cn2)c2oc(C(=O)N(C)C)cc2c1 [Compound A9] | 100 to 10000 nM |
| COc1cc(C)c(OC)c(Nc2nc3ccccc3nc2NS(=O)(=O)c2cn(C)cn2)c1 [Compound A11] | 100 to 10000 nM |
| COc1cc(C)c(OC)c(Nc2nc3ccccc3nc2NS(=O)(=O)c2ccc(C(=O)N(C)C)cc2)c1 [Compound A12] | 100 to 10000 nM |
| CCc1c(Nc2nc3ccccc3nc2NS(=O)(=O)c2ccc(C(=O)N(C)C)cc2)cc(OC)cc1OC [Compound A13] | 100 to 10000 nM |
| COc1cc(Nc2nc3ccccc3nc2NS(=O)(=O)c2ccc(C(=O)N(C)C)cc2)c2occc2c1 [Compound A15] | > 10000 nM |
| COc1cc(Nc2nc3ccccc3nc2NS(=O)(=O)c2cn(C)cn2)c2occc2c1 [Compound A16, 1-Methyl-1H-imidazole-4-sulfonic acid [3-(5-methoxybenzofuran-7-ylamino)quinoxalin-2-yl]amide] | > 10000 nM |
| CCc1cc(OC)cc(Nc2nc3ccccc3nc2NS(=O)(=O)c2cn(C)cn2)c1OC [Compound A17] | > 10000 nM |
| COc1cc(Nc2nc3ccccc3nc2NS(=O)(=O)c2ccncc2)c(OCCCO)c(OC)c1 [Compound A21] | > 10000 nM |
| COc1cc(Nc2nc3ccccc3nc2NS(C)(=O)=O)c(OCCCO)c(OC)c1 [Compound A25] | 100 to 10000 nM |
| COc1cc(Nc2nc3ccccc3nc2NS(=O)(=O)c2ccccc2OC)c(OCCCO)c(OC)c1 [Compound A26] | 100 to 10000 nM |
| COc1cc(Nc2nc3ccccc3nc2NS(=O)(=O)c2cn(C)c(CN(C)C)n2)c(OC)c(OC)c1 [Compound A31] | 100 to 10000 nM |

From US8895559B2, “Quinoxalines derivatives and pharmaceutical compositions and kits” (Merck Patent GmbH, priority 2010, dated 2014)
